The source of these data is ChEMBL document CHEMBL4431390, “Dual action Smac mimetics-zinc chelators as pro-apoptotic antitumoral agents” (Bioorg Med Chem Lett, 2016).

Active and inactive are the calls of the source. No cut-off for these calls is given here.

Test [1] concerns the target T1, E3 ubiquitin-protein ligase XIAP (Homo sapiens, UniProt P98170). Kind of test: Binding affinity to XIAP BIR3 domain in Smac mimetic-resistant human MDA-MB-453 cells assessed as increase in cleaved caspase-3 expression at 5 uM after 24 hrs by Western blot analysis. The format is cell-based.
Test [2] concerns the target T1, E3 ubiquitin-protein ligase XIAP. Kind of test: Binding affinity to XIAP BIR3 domain in Smac mimetic-resistant human MDA-MB-453 cells assessed as increase in cleaved PARP expression at 5 uM after 24 hrs by Western blot analysis. The format is cell-based. A general note: Immunoblotting shows a protein as a band on a membrane.
The target is the same in test [3]. Kind of test: Binding affinity to XIAP BIR3 domain in Smac mimetic-resistant human BT549 cells assessed as increase in cleaved caspase-3 expression at 5 uM after 24 hrs by Western blot analysis.
The target is the same in test [4]. Nature of the test: Binding affinity to XIAP BIR3 domain in Smac mimetic-resistant human MDA-MB-453 cells assessed as increase in cellular IAP1 degradation at 5 uM after 24 hrs by Western blot analysis. The format is cell-based.
Test [5] shares this target. Kind of test: Binding affinity to XIAP BIR3 domain in Smac mimetic-resistant human BT549 cells assessed as increase in cleaved PARP expression at 5 uM after 24 hrs by Western blot analysis.
The target is the same in test [6]. Kind of test: Binding affinity to XIAP BIR3 domain in Smac mimetic-sensitive human MDA-MB-231 cells assessed as increase in cleaved PARP expression at 5 uM after 24 hrs by Western blot analysis. The format is cell-based.
Test [7] shares this target. Kind of test: Binding affinity to XIAP BIR3 domain in Smac mimetic-sensitive human MDA-MB-231 cells assessed as increase in cellular IAP1 degradation at 5 uM after 24 hrs by Western blot analysis. The format is cell-based.
Test [8] has the same target. Kind of test: Binding affinity to XIAP BIR3 domain in Smac mimetic-resistant human BT549 cells assessed as increase in cellular IAP1 degradation at 5 uM after 24 hrs by Western blot analysis.
For test [9] the target is unchanged. Nature of the test: Binding affinity to XIAP BIR3 domain in Smac mimetic-sensitive human MDA-MB-231 cells assessed as increase in cleaved caspase-3 expression at 5 uM after 24 hrs by Western blot analysis. It is filed as cell-based.
Test [10] shares this target. Nature of the test: Displacement of FITC-Smac from human recombinant His-tagged XIAP BIR3 domain (241 to 356 residues) expressed in Escherichia coli BL21(DE3) cells after 3 hrs by fluorescence polarization assay.
Test [11] is described as follows: Metal chelating activity assessed as compound-Zn2+ complex formation. It is filed as functional.
For test [12], the system named is MDA-MB-231. Kind of test: Cytotoxicity against Smac mimetic-sensitive human MDA-MB-231 cells assessed as growth inhibition after 24 hrs by CellTiter-Glo assay. The format is functional, cell-based. Conditions: MDA-MB-231, 24 h. (Cellular ATP, detected with luciferase, serves as a proxy for viable cell number.)
In test [13] the test system is BT-549. Nature of the test: Cytotoxicity against Smac mimetic-resistant human BT549 cells assessed as growth inhibition after 24 hrs by CellTiter-Glo assay. It is filed as functional, cell-based. Conditions: BT-549, 24 h.
In test [14] the test system is MDA-MB-453. Kind of test: Cytotoxicity against Smac mimetic-resistant human MDA-MB-453 cells assessed as growth inhibition after 24 hrs by CellTiter-Glo assay. It is filed as functional, cell-based. The note with it: MDA-MB-453, 24 h.
Test [15] deals with MDA-MB-453. Nature of the test: Effect on XIAP level in Smac mimetic-resistant human MDA-MB-453 cells at 5 uM after 24 hrs by Western blot analysis. It is filed as functional, cell-based.
The test system of test [16] is BT-549. Nature of the test: Effect on XIAP level in Smac mimetic-resistant human BT549 cells at 5 uM after 24 hrs by Western blot analysis. The format is functional, cell-based.
Test [17] relates to MDA-MB-231. Kind of test: Effect on XIAP level in Smac mimetic-sensitive human MDA-MB-231 cells at 5 uM after 24 hrs by Western blot analysis. The format is functional, cell-based.
The nature of test [18]: Metal chelating activity assessed as compound-Zn2+ complex formation at 50 uM after 15 mins by spectrofluorimetric analysis. It is filed as functional.

T1 sequence (P98170 whole entry, the tested form may be a part): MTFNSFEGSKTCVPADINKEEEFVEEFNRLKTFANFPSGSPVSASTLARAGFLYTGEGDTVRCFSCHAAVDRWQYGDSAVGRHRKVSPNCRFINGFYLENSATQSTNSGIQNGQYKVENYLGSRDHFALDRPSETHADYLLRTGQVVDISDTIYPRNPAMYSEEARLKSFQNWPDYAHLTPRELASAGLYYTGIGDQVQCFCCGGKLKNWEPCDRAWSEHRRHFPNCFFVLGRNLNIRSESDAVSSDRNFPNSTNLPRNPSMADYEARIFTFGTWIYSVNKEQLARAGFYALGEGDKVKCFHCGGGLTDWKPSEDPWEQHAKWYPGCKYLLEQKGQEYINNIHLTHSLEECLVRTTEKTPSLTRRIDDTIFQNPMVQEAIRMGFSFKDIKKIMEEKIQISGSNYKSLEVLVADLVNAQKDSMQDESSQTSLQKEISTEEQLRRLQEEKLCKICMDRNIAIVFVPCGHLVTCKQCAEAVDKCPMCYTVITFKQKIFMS

Turning to `CC[C@H](NC)C(=O)N[C@@H]1C(=O)N2[C@@H](CC[C@@H]1CNC(=O)c1ccccc1)CC[C@H]2C(=O)N[C@H](C(=O)NCCN(Cc1ccccn1)Cc1ccccn1)c1ccccc1`, the result in [1] and in [2] was inactive. Further, the result in test [3], in test [4], in test [5], in test [6], in test [7] and in test [8] was Active. Moreover, the outcome in test [9] was Active. The half-inhibitory concentration (IC50) in test [10] amounted to 0.091 µM.

Take `c1ccc(CN(CCN(Cc2ccccn2)Cc2ccccn2)Cc2ccccn2)nc1`: the Kd in test [11] was found to be 3e-07 nM.

`C=CCc1cccc(/C=N/NC(=O)CN2CCN(Cc3ccccc3)CC2)c1O` [PAC-1]: the IC50 is 4.7 µM in the test on MDA-MB-231 [12], 14.3 µM with BT-549 [13], 2 µM in the test with MDA-MB-453 [14] and > 10 µM in test [10]. Also, the outcome (in test [6]; with MDA-MB-453 [15]; in test [7]; in the test with BT-549 [16]; in test [9]; in the test with MDA-MB-231 [17]) was inactive.

Regarding `CC[C@H](NC)C(=O)N[C@@H]1C(=O)N2[C@@H](CC[C@@H]1CNC(=O)c1ccccc1)CC[C@H]2C(=O)N(Cc1ccccn1)Cc1ccccn1`, the result in [6], in test [7] and in test [9] was inactive. Further, the IC50 in [10] is > 10 µM.

`CC[C@H](NC)C(=O)N[C@@H]1C(=O)N2[C@@H](CC[C@@H]1CNC(=O)c1ccccc1)CC[C@H]2C(=O)N[C@H](C(=O)N(Cc1ccccn1)Cc1ccccn1)c1ccccc1`: the result in test [1] and in test [2] was inactive. Besides, the outcome in [4], in test [6], in test [7] and in test [9] was Active. Also, the IC50 in [10] came out at 0.37 µM.

With `C=CCc1cccc(/C=N/NC(=O)[C@@H](NC(=O)[C@@H]2CC[C@@H]3CC[C@H](CCNC(=O)c4ccccc4)[C@H](NC(=O)[C@H](CC)NC)C(=O)N32)c2ccccc2)c1O`, the result in test [1] and in test [2] was inactive. The result in test [4], in [6], in test [7], in test [8] and in [9] was Active. Also, in test [10], the half-maximal inhibitory concentration (IC50) was found to be 1.09 µM.

For the compound `c1ccc(CNCc2ccccn2)nc1`, in [18], the result was Active. For the same compound, the Kd in test [11] amounted to 210 nM.

On to `CC[C@H](NC)C(=O)N[C@@H]1C(=O)N2[C@@H](CC[C@@H]1CNC(=O)c1ccccc1)CC[C@H]2C(=O)NC(c1ccccc1)c1ccccc1`, for which the outcome (in [1]; in [2]; in the test with MDA-MB-453 [15]; in the test on BT-549 [16]; with MDA-MB-231 [17]) was inactive. For the same compound, the half-inhibitory concentration (IC50) was 2.3 µM with MDA-MB-231 [12], > 25 µM with BT-549 [13] and > 25 µM in the test with MDA-MB-453 [14]. Moreover, the result in [3], in test [4], in test [5], in [6], in test [7] and in [8] was Active. Moreover, the outcome in test [9] was Active.

For `CC[C@H](NC)C(=O)N[C@@H]1C(=O)N2[C@@H](CC[C@@H]1CNC(=O)c1ccccc1)CC[C@H]2C(=O)N[C@@H](C(=O)N(Cc1ccccn1)Cc1ccccn1)c1ccccc1`, the outcome in test [6], in [7] and in test [9] was inactive. The half-maximal inhibitory concentration (IC50) in test [10] was > 10 µM.

With `CC[C@H](NC)C(=O)N[C@@H]1C(=O)N2[C@@H](CC[C@@H]1CNC(=O)c1ccccc1)CC[C@H]2C(=O)N[C@@H](C(=O)NCCN(Cc1ccccn1)Cc1ccccn1)c1ccccc1`, the outcome in test [6], in test [7] and in test [9] was inactive. Besides, in test [10], the half-inhibitory concentration (IC50) was > 10 µM.

One may read the IC50 as the concentration that inhibits the measured activity by half. Usually Kd stands for the constant that tells how readily two partners part at equilibrium.
